How the values were obtained:
kochia = test: Test C postemergence; type: in vivo, Kochia scoparia; conditions: for Plant response rating (scale of 0 to 100 where 0 is no effect and 100 is complete control), Kochia: Postemergence, 31 g ai/ha, visually evaluated after 13 to 15 days; for Kochia plant response rating / Plant response rating, Kochia: postemergence; for Kochia plant response rating: 62 g ai/ha, scale 0 to 100
How it was run: (§1)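 Seeds sown in loam–sand blend and treated preemergence with test chemicals in non-phytotoxic solvent with surfactant; postemergence plants in peat-based medium, treated at 2–18 cm (1- to 4-leaf stage). Greenhouse 13 to 15 days, then visual rating versus controls, 0 (no effect) to 100 (complete control).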

velvetleaf = test: Test C preemergence; type: in vivo, Abutilon theophrasti; conditions: preemergence; for Plant response rating, Velvetleaf: 125 g ai/ha, scale 0 to 100, 0 = no effect, 100 = complete control
How it was run: as §1

crabgrass, large [1] = test: Test A preemergence; type: in vivo, Digitaria sanguinalis; conditions: preemergence; for Crabgrass, Large plant response rating (0 to 100 scale): 125 g ai/ha, visual injury approx. 10 days after treatment; for Crabgrass, Large plant response rating: 500 g ai/ha, visual injury after approx. 10 days, 0 to 100 scale (0 no effect, 100 complete control)
How it was run: (§2)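 Both timings tested concurrently in loam/sand soil: preemergence by directed soil spray, postemergence on plants of 2–10 cm at the one- to two-leaf stage. Greenhouse holding period was approximately 10 days before visual injury assessment (0–100, 0 = no effect).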

pigweed = test: Test A postemergence; type: in vivo, Amaranthus retroflexus
How it was run: as §2

barnyardgrass [2] = test: Test A postemergence; type: in vivo, Echinochloa crus-galli
How it was run: as §2

ryegrass, Italian = test: Test C preemergence; type: in vivo, Lolium multiflorum; conditions: preemergence; for Plant response rating, Ryegrass, Italian: 125 g ai/ha, scale 0 to 100, 0 = no effect, 100 = complete control
How it was run: as §1

barnyardgrass [3] = test: Test C postemergence; type: in vivo, Echinochloa crus-galli; conditions: for Plant response rating (scale of 0 to 100 where 0 is no effect and 100 is complete control), Barnyardgrass: Postemergence, 31 g ai/ha, visually evaluated after 13 to 15 days; for Barnyardgrass plant response rating / Plant response rating, Barnyardgrass: postemergence; for Barnyardgrass plant response rating: 62 g ai/ha, scale 0 to 100
How it was run: as §1

crabgrass, large [4] = test: Test C preemergence; type: in vivo, Digitaria sanguinalis; conditions: preemergence; for Plant response rating, Crabgrass, Large: 125 g ai/ha, scale 0 to 100, 0 = no effect, 100 = complete control
How it was run: as §1

crabgrass, large [5] = test: Test C postemergence; type: in vivo, Digitaria sanguinalis; conditions: for Plant response rating (scale of 0 to 100 where 0 is no effect and 100 is complete control), Crabgrass, Large: Postemergence, 31 g ai/ha, visually evaluated after 13 to 15 days; for Crabgrass, Large plant response rating / Plant response rating, Crabgrass, Large: postemergence; for Crabgrass, Large plant response rating: 62 g ai/ha, scale 0 to 100
How it was run: as §1

waterhemp = test: Test C preemergence; type: in vivo, Amaranthus rudis; conditions: preemergence; for Plant response rating, Waterhemp: 125 g ai/ha, scale 0 to 100, 0 = no effect, 100 = complete control
How it was run: as §1

foxtail, giant = test: Test C preemergence; type: in vivo, Setaria faberii; conditions: preemergence; for Plant response rating, Foxtail, Giant: 125 g ai/ha, scale 0 to 100, 0 = no effect, 100 = complete control
How it was run: as §1

morningglory = test: Test A preemergence; type: in vivo, Ipomoea spp.; conditions: preemergence; for Morningglory plant response rating (0 to 100 scale): 125 g ai/ha, visual injury approx. 10 days after treatment; for Morningglory plant response rating: 500 g ai/ha, visual injury after approx. 10 days, 0 to 100 scale (0 no effect, 100 complete control)
How it was run: as §2

chickweed = test: Test C postemergence; type: in vivo, Stellaria media; conditions: for Plant response rating (scale of 0 to 100 where 0 is no effect and 100 is complete control), Chickweed: Postemergence, 31 g ai/ha, visually evaluated after 13 to 15 days; for Chickweed plant response rating / Plant response rating, Chickweed: postemergence; for Chickweed plant response rating: 62 g ai/ha, scale 0 to 100
How it was run: as §1

johnsongrass = test: Test C preemergence; type: in vivo, Sorghum halepense; conditions: preemergence; for Plant response rating, Johnsongrass: 125 g ai/ha, scale 0 to 100, 0 = no effect, 100 = complete control
How it was run: as §1

[6] = 250 g ai/ha, scale 0 to 100 (0 no effect, 100 complete control)
[7] = 125 g ai/ha, scale 0 to 100, 0 no effect, 100 complete control
[8] = 31 g ai/ha, visual rating, scale 0 to 100 (0 no effect, 100 complete control), 13 to 15 days
[9] = 62 g ai/ha, scale 0 to 100 (0 no effect, 100 complete control), 13 to 15 days
[10] = 250 g ai/ha, scale 0 to 100, 0 is no effect, 100 is complete control
[11] = Postemergence, 500 g ai/ha, 0 to 100 scale (0 no effect, 100 complete control)
[12] = postemergence, 125 g ai/ha, about 10 days, visual rating on 0 to 100 scale (0 no effect, 100 complete control)

CCCc1cc(C(=O)NC(C)C)nn1Cc1cc(C(F)(F)F)nn1C [Compound 201]
100: Velvetleaf plant response rating (velvetleaf; [9]) | Plant response rating, Velvetleaf (velvetleaf; 13 to 15 days) | Velvetleaf plant response rating (velvetleaf; [10]) | Crabgrass, Large plant response rating (0 to 100 scale) (crabgrass, large [1]) | Crabgrass, Large plant response rating (crabgrass, large [1]) | Pigweed plant response rating (pigweed; Postemergence, 125 g ai/ha, 0 to 100 scale, 0 no effect, 100 complete control) | Pigweed plant response rating (pigweed; [11]) | Barnyardgrass plant response rating (barnyardgrass [2]; [11]) | Crabgrass, Large plant response rating (crabgrass, large [4]; [8]) | Crabgrass, Large plant response rating (crabgrass, large [4]; [9]) | Plant response rating, Crabgrass, Large (crabgrass, large [4]; 13 to 15 days) | Crabgrass, Large plant response rating (crabgrass, large [4]; [10]) | Waterhemp plant response rating (waterhemp; [8]) | Waterhemp plant response rating (waterhemp; [9]) | Foxtail, Giant plant response rating (foxtail, giant; [8]) | Plant response rating, Foxtail, Giant (foxtail, giant; 13 to 15 days) | Foxtail, Giant plant response rating (foxtail, giant; [10]) | Morningglory plant response rating (0 to 100 scale) (morningglory) | Morningglory plant response rating (morningglory) | Plant response rating, Johnsongrass (johnsongrass; 13 to 15 days) | Johnsongrass plant response rating (johnsongrass; [10])
95: Foxtail, Giant plant response rating (foxtail, giant; [9])
85: Plant response rating (scale of 0 to 100 where 0 is no effect and 100 is complete control), Kochia (kochia) | Kochia plant response rating (kochia) | Plant response rating, Chickweed (chickweed; [6]) | Plant response rating, Chickweed (chickweed; [7]) | Johnsongrass plant response rating (johnsongrass; [8]) | Johnsongrass plant response rating (johnsongrass; [9])
5: Plant response rating (scale of 0 to 100 where 0 is no effect and 100 is complete control), Barnyardgrass (barnyardgrass [3])
75: Plant response rating (scale of 0 to 100 where 0 is no effect and 100 is complete control), Chickweed (chickweed)
98: Plant response rating, Waterhemp (waterhemp; 13 to 15 days) | Waterhemp plant response rating (waterhemp; [10])
65: Ryegrass, Italian plant response rating (ryegrass, Italian; [8])
10: Barnyardgrass plant response rating (barnyardgrass [3]) | Crabgrass, Large plant response rating (crabgrass, large [5])
50: Plant response rating, Crabgrass, Large (crabgrass, large [5]; [6])
60: Plant response rating, Barnyardgrass (barnyardgrass [3]; [6])
15: Plant response rating (scale of 0 to 100 where 0 is no effect and 100 is complete control), Crabgrass, Large (crabgrass, large [5]) | Plant response rating, Crabgrass, Large (crabgrass, large [5]; [7])
35: Plant response rating, Barnyardgrass (barnyardgrass [3]; [7])
80: Barnyardgrass plant response rating (barnyardgrass [2]; [12]) | Chickweed plant response rating (chickweed)
90: Plant response rating, Kochia (kochia; [6]) | Plant response rating, Kochia (kochia; [7]) | Velvetleaf plant response rating (velvetleaf; [8]) | Ryegrass, Italian plant response rating (ryegrass, Italian; [9]) | Plant response rating, Ryegrass, Italian (ryegrass, Italian; 13 to 15 days) | Ryegrass, Italian plant response rating (ryegrass, Italian; [10])

O=C(NC1CC1)c1cc(CCCl)n(Cc2ccnc(C(F)(F)F)c2)n1 [Compound 144]
95: Plant response rating, Kochia (kochia; [6]) | Plant response rating, Kochia (kochia; [7])
75: Plant response rating (scale of 0 to 100 where 0 is no effect and 100 is complete control), Kochia (kochia) | Velvetleaf plant response rating (velvetleaf; [9]) | Foxtail, Giant plant response rating (foxtail, giant; [8]) | Plant response rating, Johnsongrass (johnsongrass; 13 to 15 days)
98: Waterhemp plant response rating (waterhemp; [8]) | Waterhemp plant response rating (waterhemp; [9])
85: Kochia plant response rating (kochia) | Plant response rating, Ryegrass, Italian (ryegrass, Italian; 13 to 15 days)
0: Johnsongrass plant response rating (johnsongrass; [8])
10: Plant response rating (scale of 0 to 100 where 0 is no effect and 100 is complete control), Barnyardgrass (barnyardgrass [3]) | Plant response rating, Barnyardgrass (barnyardgrass [3]; [7]) | Plant response rating (scale of 0 to 100 where 0 is no effect and 100 is complete control), Crabgrass, Large (crabgrass, large [5]) | Crabgrass, Large plant response rating (crabgrass, large [5]) | Plant response rating, Crabgrass, Large (crabgrass, large [5]; [7])
15: Velvetleaf plant response rating (velvetleaf; [8]) | Barnyardgrass plant response rating (barnyardgrass [3]) | Plant response rating, Barnyardgrass (barnyardgrass [3]; [6])
100: Plant response rating, Velvetleaf (velvetleaf; 13 to 15 days) | Velvetleaf plant response rating (velvetleaf; [10]) | Crabgrass, Large plant response rating (0 to 100 scale) (crabgrass, large [1]) | Crabgrass, Large plant response rating (crabgrass, large [1]) | Pigweed plant response rating (pigweed; [11]) | Pigweed plant response rating (pigweed; [12]) | Crabgrass, Large plant response rating (crabgrass, large [4]; [8]) | Crabgrass, Large plant response rating (crabgrass, large [4]; [9]) | Plant response rating, Crabgrass, Large (crabgrass, large [4]; 13 to 15 days) | Crabgrass, Large plant response rating (crabgrass, large [4]; [10]) | Plant response rating, Waterhemp (waterhemp; 13 to 15 days) | Waterhemp plant response rating (waterhemp; [10]) | Foxtail, Giant plant response rating (foxtail, giant; [9]) | Plant response rating, Foxtail, Giant (foxtail, giant; 13 to 15 days) | Foxtail, Giant plant response rating (foxtail, giant; [10]) | Morningglory plant response rating (morningglory) | Johnsongrass plant response rating (johnsongrass; [10])
90: Barnyardgrass plant response rating (barnyardgrass [2]; [11]) | Ryegrass, Italian plant response rating (ryegrass, Italian; [10]) | Plant response rating, Chickweed (chickweed; [6])
80: Morningglory plant response rating (0 to 100 scale) (morningglory) | Plant response rating, Chickweed (chickweed; [7])
70: Barnyardgrass plant response rating (barnyardgrass [2]; [12]) | Plant response rating (scale of 0 to 100 where 0 is no effect and 100 is complete control), Chickweed (chickweed)
35: Johnsongrass plant response rating (johnsongrass; [9])
30: Ryegrass, Italian plant response rating (ryegrass, Italian; [9])
5: Ryegrass, Italian plant response rating (ryegrass, Italian; [8])
55: Plant response rating, Crabgrass, Large (crabgrass, large [5]; [6])
65: Chickweed plant response rating (chickweed)

From US20150105252A1, “SUBSTITUTED PYRAZOLES AS HERBICIDES” (E I DU PONT DE NEMOURS AND COMPANY, priority 2013, published 2015)
